Data published in patent US20030212105A1, “Novel anti-fertility agent” (priority 2002, published 2003).

Key:
pregnant female rats = conditions: cited from earlier work
[1] = Solubility in water (preparation of drug solution); format: physicochemical; conditions: distilled water
female albino rats [2] = experiment: Anti-implantation studies of roxatidine acetate in female rats (post coital); format: in vivo, rat
Procedure: Roxatidine was screened as a post coital anti-fertility agent on different days of pregnancy i.e. day 1st, days 1st-3rd day 4th i.e. day of ([…] days 1st-5th, days 1st-7th and day 15th-20th i.e. period of organogenesis) post coitum. The aim of the study was to determine the minimum possible dose of drug showing anti implantation activity and the specific days of gestation period when the activity is maximum studies were carried out in order to determine the possible mechanism of action of the drug. Further ELISA was conducted to assess the effects of roxatidine on the serum level of estrogen and progesterone respectively.
Daily vaginal smears of the female albino rats were taken and the regular periodicity of the estrus cycle was checked.
The animals were held, ventral side up and a drop of 0.9% saline was inserted into the vagina with the help of a Pasteur pipette, carefully, without damaging the vaginal wall to avoid false positive smears. The drop of normal saline was aspirated and replaced several times with the vaginal fluid, withdrawn and transferred to a microscopic slide. A coverslip was placed carefully on the smear avoiding the air bubble. The slide was then observed under a compound microscope (magnification-45×) and the stage of estrus cycle was determined.
Female rats in proestrus or estrus stage were housed with mature male rats (in the ratio 3 females:1 male). Each female was examined for the presence of spermatozoa in the early morning. The day on which this sign of mating is seen is taken as day 1 of pregnancy. The female was then separated and caged singly. Roxatidine was administered orally to the animal once daily on specific days of pregnancy at different concentrations.
Pregnant rats were divided into 5 groups of 10 animals each. To group I, which served as control, a constant volume of distilled water was administered orally with the help of a catheter. The drug namely, roxatidine was administered at doses of 2.5, 10, 15 & 20 mg/kg body weight orally, on specific days of pregnancy.
Fifty albino rats were divided into groups of 10 animals each. Group I served as control and received distilled water. Group II to V received Roxatidine acetate at doses of 2.5,10,15 & 20 mg/kg body weight, orally respectively on day 1 postcoital with the help of a catheter.
On day 10 of pregnancy the animal was laprotomized and the number of implants present in both the uterine horns as well as the number of corpora lutea on each ovary was counted. The animals were allowed to complete the gestation period (usually 21-23 days) and the number of litters delivered, if any were counted In this case, 2 litters were delivered.
Fifty albino rats were divided into groups of 10 animals each. Group I served as control and received distilled water. Group II to V received Roxatidine acetate at doses of 2.5,10,15 & 20 mg/kg body weight, orally respectively on day 1-3 postcoital with the help of a catheter.
On day 10 of pregnancy the animal was laprotomized and the number of implants present in both the uterine horns as well as the number of corpora lutea on each ovary was counted.
Fifty albino rats were divided into groups of 10 animals each. Group I served as control and received distilled water. Group II to V received Roxatidine acetate at doses of 2.5,10,15 & 20 mg/kg body weight, orally respectively on day 4 postcoital with the help of a catheter.
On day 10 of pregnancy the animal was laprotomized and the number of implants present in both the uterine horns as well as the number of corpora lutea on each ovary was counted. The animals were allowed to complete the gestation period (usually 21-23 days) at the end of which 3 litters were found.
Fifty albino rats were divided into groups of 10 animals each. Group I served as control and received distilled water. Group II to V received Roxatidine acetate at doses of 2.5, 10, 15 & 20 mg/kg body weight, orally respectively on day 1-7 postcoital with the help of a catheter. […]

female albino rats [3] = experiment: Preovulatory effects of roxatidine acetate in female albino rats; format: in vivo, rat; conditions: 2.5, 10, 15 & 20 mg/kg for 15 consecutive days before mating; dose group not stated
Procedure: Animals with normal estrus cycle were divided into […] with 10 animals in each group. Group I served as control and received distilled water orally. Animals in Group II, II, IV & V were administered roxatidine acetate at the doses of 2.5, 10, 15, & 20 mg/kg body weight respectively, for 15 consecutive days. During this period daily vaginal smears were taken to observe the regularity of the estrus cycle.
The females in all the groups were then paired with males of proven fertility. Daily vaginal smears were taken until the animals successfully mated. This was indicated by the presence of spermatozoa in the vaginal smears and this was taken as day 1 of pregnancy. On day 10 each animal was laprotomized and the no. of implants/resorption sites and the no. of corpora lutea were counted. The number of litters delivered at the end of the gestation period were 2.

SMILES	anti-implantation effects (pregnant female rats; oral, daily for 1-7 days post coitum, pregnant female rats)	oestrogenic/anti-oestrogenic activity (pregnant female rats; rats)	solubility in water [1]	number of litters found at end of gestation period (female albino rats [2]; 2.5, 10, 15 & 20 mg/kg orally on day 1-3 postcoital, gestation 21-23 days)	number of litters found at end of gestation period (female albino rats [2]; 2.5, 10, 15 & 20 mg/kg orally on day 1-5 postcoital, gestation 21-23 days)	number of litters found at end of gestation period (female albino rats [2]; 2.5, 10, 15 & 20 mg/kg orally on day 1-7 postcoital, gestation 21-23 days)	number of litters delivered at end of gestation period (female albino rats [2]; 2.5, 10, 15 & 20 mg/kg orally on day 1 postcoital, gestation 21-23 days, dose group not stated)	number of litters found at end of gestation period (female albino rats [2]; 2.5, 10, 15 & 20 mg/kg orally on day 4 postcoital, gestation 21-23 days, dose group not stated)	number of litters seen at end of gestation period (female albino rats [2]; 2.5, 10, 15 & 20 mg/kg orally on day 15-20 postcoital, gestation 21-23 days, dose group not stated)	inhibition of implantation (female albino rats [2]; administered in animal models)	number of litters delivered at the end of the gestation period (female albino rats [3])
CN/C(=N/CCSCc1nc[nH]c1C)NC#N [cimetidine]	exhibited anti-implantation effects	did not possess oestrogenic/anti-oestrogenic activity	–	–	–	–	–	–	–	–	–
CC(=O)OCC(=O)NCCCOc1cccc(CN2CCCCC2)c1 [Roxatidine acetate]	–	–	readily and completely soluble in water	no litters were found	no litters were found	no litters were found	2	3	2	effective in inhibiting implantation	2
